ChEMBL document CHEMBL4689842, “EUbOPEN Chemogenomics Library wave 1” (2021)

Experiments:
Fibroblast = experiment: Incucyte cell viability with human fibroblast; format: toxicity, cell-based; conditions: 10 µM, compound concentration 10 uM
U2OS = experiment: Incucyte cell viability with U2OS; format: toxicity, cell-based; conditions: human, 10 µM, compound concentration 10 uM
[1] = 0 h, replicate number 1, timepoint 0 hours
[2] = 6 h, replicate number 1, timepoint 6 hours
[3] = 12 h, replicate number 1, timepoint 12 hours
[4] = 18 h, replicate number 1, timepoint 18 hours
[5] = 18 h, replicate number 2, timepoint 18 hours
[6] = 24 h, replicate number 1, timepoint 24 hours
[7] = 24 h, replicate number 2, timepoint 24 hours
[8] = 0 h, replicate number 2, timepoint 0 hours
[9] = 6 h, replicate number 2, timepoint 6 hours
[10] = 12 h, replicate number 2, timepoint 12 hours
Further: filed as whole numbers so only -1 and 0 and 1 occur.

Structure (SMILES) | Growth Rate (Fibroblast; [1]) | Growth Rate (Fibroblast; [2]) | Growth Rate (Fibroblast; [3]) | Growth Rate (Fibroblast; [4]) | Growth Rate (Fibroblast; [5]) | Growth Rate (Fibroblast; [6]) | Growth Rate (Fibroblast; [7]) | Growth Rate (U2OS; [8]) | Growth Rate (U2OS; [2]) | Growth Rate (U2OS; [9]) | Growth Rate (U2OS; [3]) | Growth Rate (U2OS; [10]) | Growth Rate (U2OS; [4]) | Growth Rate (U2OS; [5]) | Growth Rate (U2OS; [6]) | Growth Rate (U2OS; [7]) | Growth Rate (Fibroblast; [8]) | Growth Rate (U2OS; [1]) | Growth Rate (Fibroblast; [9]) | Growth Rate (Fibroblast; [10])
CN(C)c1ncnc(-c2ccc3nc(Nc4cc(CN5CCN(C(=O)CC(F)(F)F)CC5)ccn4)[nH]c3c2)c1Cl [BAY-440] | 0 | 1 | 1 | 1 | 0 | 1 | 0 | 0 | 0 | 1 | 0 | 1 | 0 | 1 | 0 | 1 |  |  |  | 
COc1ncc(-c2ccc3nccc(-c4ccnnc4)c3c2)cc1NS(=O)(=O)c1ccc(F)cc1F [OMIPALISIB] |  | 0 | 0 | 0 |  | 0 |  |  | 1 |  | 1 |  | 0 |  | 0 |  | 0 | 1 |  | 
O=C(NCCCC1CCCCC1)c1ccc(CNC(=O)c2cnn(-c3ccccc3)c2C(F)(F)F)cc1 [SR-321] | 1 | 1 | 1 | 1 |  | 1 |  |  | 1 | 0 | 1 |  | 1 |  | 1 |  |  | 0 | 0 | 0
CCN(CC)CCCCNc1ncc2cc(-c3cc(OC)cc(OC)c3)c(NC(=O)NC(C)(C)C)nc2n1 [PD-173074] | 1 | 1 | 0 | 0 |  | 0 |  | 0 | 0 | 1 | 0 | 1 | 0 | 1 | 0 |  | 0 | 1 |  | 
Cc1c(-c2ccc(O)cc2)n(Cc2ccc(OCCN3CCCCCC3)cc2)c2ccc(O)cc12 [BAZEDOXIFENE] | 0 | 0 | 0 | 0 |  | 0 |  | 0 |  |  | 1 |  | 0 | 1 | 0 |  |  |  |  | 
CN1C(=O)c2sccc2N(C)c2nc(Nc3ccc(S(N)(=O)=O)cc3)ncc21 | 0 | 1 | 0 | 0 |  | 0 | 1 | 0 | 0 |  | 0 |  | 0 |  | 0 |  |  |  | 0 | 1
O=C1NCN(c2ccccc2)C12CCN(CCCOc1ccc(F)cc1)CC2 [SPIRAMIDE] | 1 | 0 | 0 | 0 |  | 0 |  |  |  | 1 | 0 |  | 0 |  | 0 |  |  | 0 |  | 
CN1CCN(c2ccc(OC(F)(F)F)c(Nc3ncc4c(n3)-c3c(c(C(N)=O)nn3CCO)CC4)c2)CC1 [ONVANSERTIB] |  | 0 | 0 | 0 |  | 0 |  |  | 0 |  | 0 |  | 0 |  | 0 |  |  | 0 |  | 
C[C@@H](NCCCc1cccc(C(F)(F)F)c1)c1cccc2ccccc12.Cl [CINACALCET HYDROCHLORIDE] | 1 | 0 | 0 | 0 |  | 0 |  |  |  | 0 | 1 | 0 | 0 |  | 0 |  |  |  |  | 
c1cn2cc(-c3ccc4cn[nH]c4c3)nc(Nc3ccc(N4CCOCC4)cc3)c2n1 [ENTOSPLETINIB] |  | 0 | 0 | 0 |  | 0 |  | 1 |  | 1 | 1 |  | 1 | 0 | 0 |  | 0 |  |  | 
Cn1cc(C2=C(c3cn(C4CCN(Cc5ccccn5)CC4)c4ccccc34)C(=O)NC2=O)c2ccccc21 [ENZASTAURIN] |  | 0 | 0 | 0 |  | 0 |  |  | 0 |  | 0 |  | 0 |  | 0 |  |  | 0 |  | 
Cn1cncc1[C@@](O)(COc1ccc(C#N)cc1-c1ccc(OC(F)(F)F)cc1)c1ccc(C#N)cc1 [A-108] | 1 | 0 | 0 | 0 |  | 0 |  |  | 0 |  | 1 |  | 0 |  | 0 |  |  | 0 |  | 
CC(C)C(=O)Nc1n[nH]c2cc(-c3cccc(NS(=O)(=O)C4CC4)c3)ccc12 | 1 | 0 | 0 | 0 |  | 0 |  |  | 0 |  | 0 |  | 0 |  | 0 |  |  | 0 |  | 
C=CC(=O)Nc1cc2c(Nc3ccc(F)c(Cl)c3)ncnc2cc1OCCCN1CCOCC1.Cl.Cl [CANERTINIB DIHYDROCHLORIDE] | 1 | 0 | 0 | 0 |  | 0 |  |  | 0 |  | 0 |  | 0 |  | 0 |  |  |  |  | 
C=CC(=O)Nc1ccc2ncnc(Nc3ccc(OCc4cccc(F)c4)c(Cl)c3)c2c1.Cc1ccc(S(=O)(=O)O)cc1 | 0 | 0 | 0 | 0 |  | 0 |  | 1 |  | 0 | 1 |  | 0 |  | 0 |  |  |  |  | 
CN1CCN(CCOc2cc(OC3CCOCC3)c3c(Nc4c(Cl)ccc5c4OCO5)ncnc3c2)CC1 [SARACATINIB] | 0 |  |  | 1 |  | 1 |  |  | 0 |  | 0 | 1 | 0 | 1 | 0 | 1 |  |  |  | 
CN(C)C(=O)/C(C#N)=C/c1ccc(-c2nc3cnc4[nH]ccc4c3n2C2CCCCC2)o1 |  | 1 | 0 | 0 | 1 | 0 |  |  | 0 | 1 | 0 | 1 | 0 | 1 | 0 | 1 | 0 | 0 |  | 
Cc1csc2c(N[C@@H](C)CN3CCN(S(=O)(=O)c4ccc(Cl)c(Cl)c4)CC3)ncnc12 | 0 |  | 1 | 0 |  | 0 |  |  |  | 1 | 1 | 0 | 0 |  | 0 |  |  | 0 | 0 | 0
CCn1c(=O)c(-c2ccc(Cl)cc2Cl)cc2cnc(Nc3ccc(N4CCNCC4)c(F)c3)nc21 | 0 | 0 | 0 | 0 |  | 0 |  |  | 0 |  | 0 |  | 0 |  | 0 |  |  | 0 |  | 
